Reference: article PMC12508576, “Implementing a trilineage differentiation in the ReproTracker assay for improved teratogenicity assessment” (Frontiers in Toxicology, 2025)
Read-outs that look alike come from different tables or passages of the source.

Experiments:
[1] = test system: hiPSCs differentiating into neural rosette-like cells
Description: (§1) Prior to differentiation, the cells were harvested and dissociated into single cells using Gibco™ TrypLE™ Select (ThermoFisher Scientific; Bleiswijk, Netherlands) for 5 min at 37 °C. Cells were seeded in Matrigel™-coated 24-well plates (ThermoFisher Scientific) in mTeSR™1 containing RevitaCell™ Supplement (ThermoFisher Scientific). […] The cells were cultured in this medium until D3. From D3 until the end of the differentiation protocol (D13) (one-step protocol), cells were cultured in N2B27 medium without ROCK inhibitor or LDN193189. In the case of the replating protocol, cells were replated at D7 and grown in the same medium until day 13. At the end of the differentiation, morphology of the cells was assessed using an Operetta CLS (Revvity) instrument. The expected morphology for each of the lineages, to ensure data acceptance and correct differentiations, is further described in Section 2.9 of the methods section. The trilineage differentiation was replicated in 96-well plates (ThermoFisher Scientific and Revvity Phenoplate) using the same differentiation protocols with an adapted number of cells for the seeding. And termination at D14.
(§2) Cells were harvested, and total RNA was isolated using the Maxwell® RSC simply RNA Cells Kit (cat. no.: #AS1390; Promega) on a Maxwell automated purification instrument (Maxwell RSC 48; Promega). […] Each individual primer was paired with its corresponding fluorophore and quencher and adjusted accordingly depending on gene abundance. Primer and probe sequences are described in Supplementary Table S1.
(§3) Data acceptance was based on the appropriate expression of the assessed biomarker genes in the differentiated populations, at appropriate times during differentiation. Failure to observe the expected temporal expression of key, lineage-specific biomarkers, during the cell fate choices associated with each differentiation protocol, would result in the experiment being invalidated.
(§4) To follow morphological changes throughout the hepatocyte and neural differentiation protocol, brightfield images of the cells were acquired after each medium refresh using an iRiS digital cell imaging microscope (Logos Biosystems) or an Operetta CLS (Revvity) instrument. Images were scored based on visual assessment. Cardiac contractability of cardiomyocytes was evaluated visually using an iRiS digital cell imaging microscope (Logos Biosystems).
(§5) Morphologically, cardiomyocytes are expected to group in fiber-like 3D structures that distribute throughout the entire plate. Aside from morphology, an additional criterion for cardiomyocyte differentiation in each experimental setup is for the contracting mature cardiomyocyte cultures exposed to solvent controls, to reach 75%. […] Neural rosettes are recognized by well-defined cell boundaries and multi-layered cultures. Functional/morphological assessment was completed independently from biomarker data analyses. Morphology scores were confirmed by a second person. Failure to observe the anticipated cell morphology/functionality throughout differentiation would result in invalidation of the experiment. Disruption in the morphology of cardiomyocytes is described as a lack of 3D-fibre-like structures in the cultures as well as a clear lack of contractions. Morphologically aberrant hepatocytes are characterized by a lack of polygonal structures with smaller cytoplasm that in the control cultures and the formation of dark cell-dense structures, commonly indicative of clumps of dead cells with big empty spaces between cell colonies.

human = conditions: Table 1 (R3 I (2021), Schulz et al. (2020) and others); cited from earlier work
[2] = read-out: Human therapeutic cmax, Table 1 (R3 I (2021), Schulz et al. (2020) and others); cited from earlier work
[3] = test system: hiPSCs trilineage differentiation (cardiomyocytes, hepatocytes, neural rosette-like cells); test: ReproTracker trilineage differentiation, overall teratogenicity prediction; conditions: for LOAEL compared with respective human therapeutic Cmax: Figure 4; for ReproTracker results LOAEL: lowest tested concentration with significant decrease of at least one biomarker, trilineage assay, 'N.d. up to x' given as > x
Description: (§6) In ReproTracker, teratogenicity prediction of test compounds is based on a Weight of Evidence (WoE) approach, which considers both the significant decrease in biomarker expression and the morphological/functional changes following exposure to test compounds throughout differentiation assays.
(§7) This threshold, for any given biomarker, is defined as the average minus one time the standard deviation (SD) of the biomarker expression levels in solvent-exposed control cultures throughout the experiment. Reduced expression of the selected biomarkers below the set threshold in a concentration-dependent manner, upon exposure to a minimum of 2 consecutive non-cytotoxic concentrations would be considered significant (noted as +). A decrease in expression below the threshold without a clear dose-response would lead to an equivocal classification (noted as (+)). An increase in expression or a lack of response would be considered negative (noted as -). Disruption of morphology/functionality of the cultures upon compound exposure at the two highest tested concentrations in all biological replicates is considered as a morphological disruption (noted as +). Absence of significant effects results in a negative score (noted as -).
(§8) For each differentiation assay, the expression of two biomarkers and a morphological/functional read-out are considered. In the hepatocyte and cardiomyocyte differentiation, FOXA2 and BMP4 are considered germ-layer-specific biomarkers, while AFP and MYH6 are considered cell-specific biomarkers, respectively. When applying the WoE approach, the cell-specific biomarkers in hepatocyte and cardiomyocyte differentiation are given higher weight compared to the germ-layer specific biomarkers and morphology/functionality. For the neural differentiation, both PAX6 and NESTIN are given equal weight as they are considered cell-specific markers. In this case, both biomarkers are given higher weight than the morphological read-out.
(§9) Every measurement/observation is assigned a score (positive, negative, or equivocal). […] In the ReproTracker assay, a compound is identified as a teratogen if it receives a positive score in at least one of the trilineage differentiation assays (cardiomyocyte, hepatocyte, or neural differentiation). […] If neither biomarker expression levels nor morphology/functionality are affected in any of the differentiation assays, the response is considered negative.

[4] = test system: hiPSCs differentiating into cardiomyocyte-like cells; test: ReproTracker cardiomyocyte differentiation assay
Description: as §1, §2, §3, §4, §5

[5] = test system: hiPSCs differentiating into hepatocyte-like cells; test: ReproTracker hepatocyte differentiation assay
Description: as §1, §2, §3, §4, §5

[6] = test system: hiPSCs differentiating into neural rosette-like cells; test: Neural rosette differentiation, replating protocol, PAX6/NESTIN immunostaining; assay type: cell-based, human; conditions: for NESTIN localization: D13; for PAX6 protein levels: D13, non-cytotoxic concentrations; for NESTIN protein levels: D13, tacrolimus: highest tested concentration
Description: as §1
For neural rosette-like cells’ imaging, cells were washed with PBS and subsequently, cells were fixed using 4% paraformaldehyde in PBS. Permeabilization was performed using 0.1% Triton-X in PBS for 10 min at room temperature. Cells were blocked using 10% donkey serum diluted in PBS +0.1% Tween20 for 10 more minutes. Incubation with primary antibody overnight at 4 °C was performed to stain the cells. The cells were washed 3 times with PBS +0.1% Tween20 and incubated with a secondary antibody in PBS for 1 h at room temperature. Cellular nuclei were stained using Hoechst H33342 (CAS# […], Sigma Aldrich in a 1:5000 dilution). Imaging was done using an Operetta CLS (Revvity) instrument. Primary and secondary antibodies’ concentrations are described in Supplementary Table S2.
To quantify PAX6-and NESTIN-positive cells, Hoechst-stained nuclei were selected based on their fluorescent signal above the background. Cells were also excluded if touching the edge of the fields of view. Also, size exclusion was applied to avoid clustered nuclei being counted as single objects. Fluorescence measurements of PAX6 were performed within the defined nuclei and intracellularly for NESTIN. Then, a minimal fluorescence threshold was defined, resulting in the selection of PAX6-positive cells and NESTIN-positive cells. Finally, the percentages of PAX6-and NESTIN-positive cells were calculated using Revvity Harmony™ Software.
The compounds were tested in both the replating and the one-step protocols. Due to the nature of the protocols, teratogenicity prediction of the compounds was performed based on quantification of PAX6 and NESTIN-positive cells at D13 in the replating protocol or on a significant reduction in the biomarker gene expression at D7 and D13, as well as qualitative morphological analysis at D13 in the one-step protocol.

[7] = test system: hiPSCs trilineage differentiation (cardiomyocytes, hepatocytes, neural rosette-like cells); conditions: human
Description: as §6, §7, §8, §9

undifferentiated hiPSCs [8] = test: Concentration-range selection and cytotoxicity assessment (AlamarBlue); conditions: lowest concentration that induced a maximum of 20% cytotoxicity in hiPSCs, 7 days
Description: In short, hiPSCs were exposed to 20 consecutive concentrations of the test compounds using 1 mM or the maximum soluble concentration as the top concentration. Test compounds were added to the medium prior to the refreshes at D0 and D3. Cytotoxicity was estimated at D7; upon completion of the experiments, cells were incubated with resazurin solution (0.01 mg/mL in PBS) and measured absorbance (excitation 530 nm and emission 590 nm). Results were normalized against vehicle controls (0.1% v/v DMSO).
All compounds were tested at five consecutive concentrations in two-fold dilution steps. The top concentration was determined as the lowest concentration that induced a maximum of 20% cytotoxicity in the concentration range finding experiments. Compounds were then diluted 2-fold using serial dilutions.
Data acceptance for dose-range finding experiments was based on the response to positive and negative assay controls, and compound solubility and cytotoxicity. […] Concentrations of compound(s) inducing cytotoxicity and therefore reducing cell survival below 80% were excluded from further testing in differentiation assays.
Thus, to determine cytotoxicity of the test compounds, undifferentiated hiPSCs were exposed to 20 consecutive concentrations at 2-fold dilutions for 7 days. The lowest concentration that induced a maximum of 20% cytotoxicity in the concentration range finding experiment was applied as top concentration for the differentiation experiments.

undifferentiated hiPSCs [9] = test system: undifferentiated hiPSCs; set-up: method as in Jamalpoor et al., 2022; conditions: lowest concentration that induced a maximum of 20% cytotoxicity in hiPSCs; dose-range finding previously published; ref Jamalpoor et al., 2022; cited from earlier work
[10] = test system: hiPSCs trilineage differentiation (cardiomyocytes, hepatocytes, neural rosette-like cells); conditions: based on effects on cardiomyocytes and/or hepatocytes only; ref Jamalpoor et al., 2022; cited from earlier work
[11] = test system: hiPSCs differentiating into hepatocyte-like cells; conditions: lineage call; footnote b: previously published data; ref Jamalpoor et al., 2022; cited from earlier work
[12] = test system: hiPSCs differentiating into cardiomyocyte-like cells; conditions: lineage call; footnote b: previously published data; ref Jamalpoor et al., 2022; cited from earlier work
[13] = lineage call (positive/equivocal/negative)

NESTIN protein levels [6] | NESTIN gene expression at D13 [1] | PAX6 gene expression at D7 [1] | ReproTracker results Neural rosette-like cells [1] | morphology of neural rosette-like cells [1] | ReproTracker results Cardiomyocyte-like cells [4] | ReproTracker results Hepatocyte-like cells [5] | SMILES | Cmax [2] | ReproTracker results LOAEL [3] | PAX6 protein levels [6] | top concentration for the differentiation experiments (undifferentiated hiPSCs [9]) | other results
 |  |  |  |  |  |  | Nc1cccc2c1C(=O)N(C1CCC(=O)NC1=O)C2=O (stereo not shown) [Pomalidomide] | 300 to 400 nM | ≤12.5 µM |  |  | ReproTracker results Neural rosette-like cells [1, 13]: Positive; In vivo classification H (human): T (presumed); LOAEL compared with respective human therapeutic Cmax [3]: higher; ReproTracker results Cardiomyocyte-like cells [4, 13]: Positive; ReproTracker results Hepatocyte-like cells [5, 13]: Positive
increasing | downregulated | downregulation | Positive | disrupted | Positive | Positive | CC1=C(/C=C/C(C)=C/C=C/C(C)=C/C(=O)O)C(C)(C)CCC1 [Tretinoin (Retinoic acid)] | 1300 nM |  | significantly decreased |  | effect at the highest tested concentration in the replating protocol ([6]; 5 µM): complete cell death; NESTIN localization [6]: disrupted; LOAEL compared with respective human therapeutic Cmax [7]: equal to or below; ReproTracker results LOAEL [7]: ≤0.3 µM; NESTIN gene expression at D7 [1]: increased; OTX2 gene expression [1]: downregulation; PAX6 gene expression at D13 [1]: downregulation; top concentration for the differentiation experiments (undifferentiated hiPSCs [8]): 5 µM
 |  |  | Negative |  | Negative | Negative | CO [Methanol] | 98700 nM | N.d. up to 1000 µM |  |  | In vivo classification H (human): NT (presumed)
increased | downregulated | downregulation | Positive | disrupted | Equivocal | Positive | C=CC[C@@H]1/C=C(\C)C[C@H](C)C[C@H](OC)[C@H]2O[C@@](O)(C(=O)C(=O)N3CCCC[C@H]3C(=O)O[C@H](/C(C)=C/[C@@H]3CC[C@@H](O)[C@H](OC)C3)[C@H](C)[C@@H](O)CC1=O)[C@H](C)C[C@@H]2OC [Tacrolimus] | 0.6 to 30 nM |  | concentration-dependent decrease | 7.81 µM | NESTIN localization [6]: affecting; LOAEL compared with respective human therapeutic Cmax [7]: higher; ReproTracker results LOAEL [7]: ≤0.2 µM; NGN2 gene expression [1]: no significant effect; OTX2 gene expression [1]: no significant effect; PAX6 gene expression at D13 [1]: increasing; SOX1 gene expression [1]: no significant effect
no effect | no effect | no effect | Negative | no effect | Negative | Negative | O=C1NS(=O)(=O)c2ccccc21 [Saccharin] |  | N.d. up to 250 µM | no effect | 250 µM | 
 |  |  |  |  |  |  | [CH3][Hg][Cl] [Methylmercury] | 1 to 30 nM | N.d. up to 0.31 µM |  | 0.3 µM | ReproTracker results Cardiomyocyte-like cells [12]: Negative; ReproTracker results Neural rosette-like cells [1, 13]: Negative; ReproTracker results Hepatocyte-like cells [11]: Negative

SMILES | NESTIN protein levels [6] | NESTIN gene expression at D13 [1] | PAX6 gene expression at D7 [1] | ReproTracker results Neural rosette-like cells [1] | morphology of neural rosette-like cells [1] | ReproTracker results Cardiomyocyte-like cells [4] | ReproTracker results Hepatocyte-like cells [5] | Cmax [2] | ReproTracker results LOAEL [3] | PAX6 protein levels [6] | top concentration for the differentiation experiments (undifferentiated hiPSCs [9]) | other results
COc1ccc([C@@H]2Sc3ccccc3N(CCN(C)C)C(=O)[C@@H]2OC(C)=O)cc1 [Diltiazem] |  |  |  | Positive |  |  |  | 60 to 300 nM | ≤7.8 µM |  |  | LOAEL before inclusion of the neural differentiation readout [10]: 31 µM; LOAEL compared with respective human therapeutic Cmax [3]: higher; ReproTracker results LOAEL ([3]; listed as diltiazem): ≤ 7.8 µM; ReproTracker results Hepatocyte-like cells [11]: Positive
